# Patent US10330670B2, “Therapeutic or prophylactic agent for retinopathy of prematurity, testing method for retinopathy of prematurity, and screening method for therapeutic or prophylactic substance for retinopathy of prematurity” (TOKYO UNIVERSITY OF AGRICULTURE AND TECHNOLOGY, priority 2012, dated 2019)
# “Also recorded” adds a separate entry of the source.
# Experiments:
# [1] = system: retinal neovascularization; assay: Influence of nafamostat mesilate (NM) on retinal neovascularization in ROP model mice; type: in vivo; conditions: 1 mg/kg intraperitoneally every day P12-P17
# Method: For the ROP models, the BMCMC-injected W^sh/W^sh mice produced in Reference Example 2 (administered by an amount of 1×10^6 cells/20 μL) were used, and W^sh/W^sh mice to which saline was administered by the same volume were used as the control group. The oxygen concentration for the period P0-P17 was replaced by the same schedule as Example 1 (see FIG. 7). 1 mg/kg/20 μl NM dissolved in saline or saline was injected to the mice intraperitoneally in the period P12-P17 every day. On P17, the mice were slaughtered and eyes are collected, and evaluation of neovascularization was performed in the similar manner as Example 1. The results are illustrated in FIG. 8. In FIG. 8 the sign “*” denotes P<0.05 (compared with the number of nuclei of the endothelial cells of the vessels of the control mice).
# [2] = system: human mast cell strain HMC-1; assay: Degranulation of mast cells induced by variation of oxygen concentration, β-hexosaminidase release; type: cell-based; conditions: 75% O2 24 hours then 20% O2 12 hours, p<0.05
# From the text: It has been known that human mast cell strain HMC-1 is a cell strain derived from leukemia, that it has a characteristic as a mast cell, and that it includes β-hexosaminidase in its granules. With reference to a previous report (European Journal of Immunology, Vol. 29, 2645-2649 (1999)), HMC-1 cells were suspended in an α-MEM culture medium to which 10% (v/v) fetal calf serum and a usual dose of antibiotic had been added for preparation of a mast cell suspension with a cell concentration of 5×10^5 cells/ml. Throughout the test period including the period in the high oxygen concentration environment, all the cells were subjected to an environment of 5% (v/v) CO2, 37° C. as the cultivation condition other than the oxygen concentration.
# The mast cell suspension was dispensed on a 96-well plate at 4×10^5 cells/well. Cromolyn and each of the seven candidate substances were added to obtain the following concentrations. As controls (media) to which the agent was not added and as non-treated examples to which the marker substance release induction process was not carried out, wells to which neither cromolyn nor the candidate substances was added were set.
# The marker substance (β-hexosaminidase) release induction process and the step for contact with the mast cells HMC-1 that had been subjected to the marker substance release induction process were performed by retaining the 96-well plate in the high oxygen concentration environment (75 v/v % oxygen) for 24 hours and in the normal oxygen environment (20 v/v % oxygen) for 12 hours. For the non-treated example, the 96-well plate was retained in the normal oxygen environment (20 v/v % oxygen) for 24 hours and further retained in the normal oxygen environment for 12 hours.
# The detection and measurement of the marker substance (β-hexosaminidase) that had been released by degranulation of the mast cells in the contacting step were carried out by a previously reported method (Eur. J. Immunol. 19 (1989) 2251-2256). To put it briefly, the step was carried out in the following manner. After having collecting the supernatant from the respective wells after the contacting step, the pellets (cells) were dissolved in a 0.5% triton X-100-containing α-minimal essential medium (α-MEM: a product of Gibco) at the same volume. In the respective wells of the 96-well plate, 5 μl supernatant or cell lysates were mixed with a 50 μl substrate solution (1.3 mg/ml p-nitrophenyl-N-acetyl-β-D-glucosamine;
# pH 4.5 in 100 mM sodium citrate). After incubation at 37° C. for 60 minutes, 150 μl, 200 mM solution of glycine (pH 10.7) was added, and the reaction was stopped. The absorbance was measured at 414 nm. The (%) of the released marker substance (β-hexosaminidase) was calculated according to the following expression; OD(supernatant)/(OD(supernatant).+OD(pellet))×100.
# The test was performed by three-sample test, an average and standard deviation were calculated on the basis of the measurement results for statistic analysis by ANOVA+ Tukey's test.
# [3] = system: retinal neovascularization; assay: Influence of cromolyn on retinal neovascularization in oxygen-induced ROP model mice; type: in vivo; conditions: eyes on P17
# From the text: As have been reported before (Invest. Ophthalmol. Vis. Sci., 35, 101-111 (1994), etc.), for the +/+ mice, +/W^sh mice, and W^sh/W^sh mice, respectively, neonatal mice were placed in a closed chamber containing 75 v/v % O2 together with their mother for lactation on P7, and this state was maintained for 5 days (P7-P12). Subsequently, this state was continued for further 5 days (P12-P17) in the normal oxygen environment (21 v/v % O2) for induction of oxygen-induced retinopathy (OIR) for use as experimental ROP models. The control mice were raised in the normal oxygen environment (indoor environment, 25° C., 21 v/v % O2. The same applies for the description of Examples.) throughout the test period. Note that the symbol “P”, which refers to a date, herein denotes that the date is a postnatal date, and “P7”, for example, refers to a 7th postnatal date. On P17, eyes were collected from the mice with ROP, fixed with Davidson's fixative overnight, and then embedded with paraffin. Paraffin-embedded serial sections axially sectioned at 6 μm were obtained, stained with HE, images were taken at the magnification 20, and the number of nuclei of the endothelial cells on the side of the vitreous body of the internal limiting membrane was counted. In the immunohistochemical test, the sections were subjected to incubation at 4° C. overnight together with anti-PECAM-1 antibody (a product of Santa Cruz Biotechnology, Inc.) having been diluted at 1:100 (in capacity ratio). To examine an influence in various states of different oxygen concentration, mice for use in the tests were raised in a period from P0 to P17 according to the schedule in which the normal oxygen environment was used in the period P0-P7 (21 v/v % oxygen), the high oxygen concentration environment in the period P7-P12 (75 v/v % oxygen), and the normal oxygen environment in the period P12-P17. On P7 and P12, the oxygen concentration environment was replaced. The neonatal mice of +/+ mice and the W^sh/W^sh mice were divided into three groups, and cromolyn (a product of Sigma Aldrich Corporation) dissolved in phosphate buffered saline (PBS) was injected to the mice at the concentration of 50 mg/kg/20 μL intraperitoneally every day. PBS was administered to the control group at the same volume. Administration methods of the agent for the respective groups were as illustrated in FIG. 5. Specifically, for the first group, cromolyn was administered to the neonatal mice from P6 to P16. […] Subsequently, similarly to Reference Example 1, the number of nuclei of the endothelial cell was counted after staining the ocular sections by HE, and thereby influences of cromolyn on the retinal neovascularization in the +/+ and W^sh/W^sh neonatal mice was evaluated in the similar manner as Reference Example 1.
smiles,measurement,setting,value
"N=C(N)c1ccc2cc(OC(=O)c3ccc(N=C(N)N)cc3)ccc2c1 [NM, nafamostat mesilate]",retinal neovascularization (neovascular nuclei),[1]; +/+ mice with induced ROP,inhibited retinal neovascularization
same,retinal neovascularization (neovascular nuclei),[1]; BMCMC-injected W^sh/W^sh mice with induced ROP,inhibited retinal neovascularization
CC(C)c1ccc2oc3nc(N)c(C(=O)O)cc3c(=O)c2c1 [amlexanox],degranulation (ratio of released β-hexosaminidase) compared with controls (media),[2]; 1 μM amlexanox,inhibited the degranulation
"O=C(O)c1cc(=O)c2c(OCC(O)COc3cccc4oc(C(=O)O)cc(=O)c34)cccc2o1 [cromolyn, cromoglycic acid]","retinal neovascularization (number of nuclei of the endothelial cell, HE-stained ocular sections)","[3]; +/+ mice, first group: 50 mg/kg intraperitoneally every day P6-P16",a level as low as that in the W^sh/W^sh mice; also recorded: decreased pathological neovascularization
same,"retinal neovascularization (number of nuclei of the endothelial cell, HE-stained ocular sections)","[3]; +/+ mice, third group: 50 mg/kg intraperitoneally every day P11-P16",a level as low as that in the W^sh/W^sh mice; also recorded: significantly small; also recorded: less than those in the W^sh/W^sh mice
same,"retinal neovascularization (number of nuclei of the endothelial cell, HE-stained ocular sections)",[3]; second group: 50 mg/kg intraperitoneally every day P6-P11 (high oxygen period),did not influence; also recorded: no effect of inhibition
same,"retinal neovascularization (number of nuclei of the endothelial cell, HE-stained ocular sections)","[3]; second group: 50 mg/kg intraperitoneally every day P6-P11 (high oxygen period), listed as Cromolyn",did not influence
same,degranulation (ratio of released β-hexosaminidase) compared with controls (media),[2]; 10 ng/ml,inhibited the degranulation
NC1=NCC2c3ccccc3Cc3ccccc3N12 (stereo not drawn) [epinastine],degranulation (ratio of released β-hexosaminidase) compared with controls (media),[2]; 1 ng/ml,inhibited the degranulation
C[C@@H]1CN([C@H]2CC[C@](C#N)(c3ccc(F)cc3)CC2)CC[C@]1(C(=O)O)c1ccccc1 [levocabastine],degranulation (ratio of released β-hexosaminidase) compared with controls (media),[2]; 10 nM levocabastine,inhibited the degranulation
Cc1cccn2c(=O)c(-c3nnn[nH]3)cnc12 [pemirolast],degranulation (ratio of released β-hexosaminidase) compared with controls (media),[2]; 10 nM pemirolast,inhibited the degranulation
CCOCC(O)COc1ccc(NC(=O)CC[S+](C)C)cc1 (stereo not drawn) [suplatast],degranulation (ratio of released β-hexosaminidase) compared with controls (media),[2]; 10 μM suplatast,inhibited the degranulation
